Our source for the IC50 and viability values is ChEMBL document CHEMBL3853288, “Biginkgosides A-I, Unexpected Minor Dimeric Flavonol Diglycosidic Truxinate and Truxillate Esters from Ginkgo biloba Leaves and Their Antineuroinflammatory and Neuroprotective Activities” (J Nat Prod, 2016).

Data set [1] in a line: Antineuroinflammatory activity in mouse BV2 cells assessed as inhibition of LPS-induced NO production incubated for 4 hrs followed by LPS stimulation for 24 hrs by Griess assay. It is filed as functional, cell-based. The note with it: BV-2.
Data set [2] in a line: Cytotoxicity against LPS-stimulated mouse BV2 cells assessed as cell viability at 20 uM incubated for 4 hrs followed by LPS stimulation for 24 hrs by MTT assay. The class given is toxicity, BV-2. The note with it: read-out: Activity. (In general: Tetrazolium assays rely on reduction of a dye to a coloured formazan, in cell work by metabolically active cells.)
The test system of data set [3] is SH-SY5Y. In words: Neuroprotection against amyloid beta (25 to 35)-induced cell toxicity in human SH-SY5Y cells assessed as cell viability at 1 uM incubated for 2 hrs followed by amyloid beta (25 to 35) treatment for 24 hrs by MTT assay (reference value: 62.4 +/- 3.5%). The note with it: read-out: Activity. The class given is functional.
Data set [4] deals with SH-SY5Y. In words: Neuroprotection against amyloid beta (25 to 35)-induced cell toxicity in human SH-SY5Y cells assessed as cell viability at 10 uM incubated for 2 hrs followed by amyloid beta (25 to 35) treatment for 24 hrs by MTT assay (reference value: 62.4 +/- 3.5%). It is filed as functional. As to conditions: read-out: Activity.

Structures are written as SMILES. Bounds are passed on as bounds.

In general, IC50 refers to the concentration that inhibits the measured activity by half. In the case of `C[C@@H]1O[C@@H](Oc2c(-c3ccc(O)c(O)c3)oc3cc(O)cc(O)c3c2=O)[C@H](O[C@@H]2O[C@H](COC(=O)[C@H]3[C@H](C(=O)OC[C@H]4O[C@@H](O[C@H]5[C@H](Oc6c(-c7ccc(O)c(O)c7)oc7cc(O)cc(O)c7c6=O)O[C@@H](C)[C@H](O)[C@H]5O)[C@H](O)[C@@H](O)[C@@H]4O)[C@@H](c4ccc(O)cc4)[C@@H]3c3ccc(O)cc3)[C@@H](O)[C@H](O)[C@H]2O)[C@H](O)[C@H]1O`, the 50% inhibitory concentration (IC50) in data set [1] came to 2.91 µM. In data set [2], the viability at 24 h, 20 µM amounted to 99%. In the case of `C[C@@H]1O[C@@H](Oc2c(-c3ccc(O)c(O)c3)oc3cc(O)cc(O)c3c2=O)[C@H](O[C@@H]2O[C@H](COC(=O)[C@@H]3[C@H](C(=O)OC[C@H]4O[C@@H](O[C@H]5[C@H](Oc6c(-c7ccc(O)c(O)c7)oc7cc(O)cc(O)c7c6=O)O[C@@H](C)[C@H](O)[C@H]5O)[C@H](O)[C@@H](O)[C@@H]4O)[C@@H](c4ccc(O)cc4)[C@H]3c3ccc(O)cc3)[C@@H](O)[C@H](O)[C@H]2O)[C@H](O)[C@H]1O`, the IC50 in data set [1] is above 100 µM. For the molecule `C[C@@H]1O[C@@H](Oc2c(-c3ccc(O)cc3)oc3cc(O)cc(O)c3c2=O)[C@H](O[C@@H]2O[C@H](COC(=O)[C@H]3[C@H](c4ccc(O)cc4)[C@@H](C(=O)OC[C@H]4O[C@@H](O[C@H]5[C@H](Oc6c(-c7ccc(O)cc7)oc7cc(O)cc(O)c7c6=O)O[C@@H](C)[C@H](O)[C@H]5O)[C@H](O)[C@@H](O)[C@@H]4O)[C@@H]3c3ccc(O)cc3)[C@@H](O)[C@H](O)[C@H]2O)[C@H](O)[C@H]1O`, in data set [1], the half-inhibitory concentration (IC50) stood at 17.2 µM. Besides, the viability at 24 h, 20 µM in data set [2] was 97.7%. `C[C@@H]1O[C@@H](Oc2c(-c3ccc(O)cc3)oc3cc(O)cc(O)c3c2=O)[C@H](O[C@@H]2O[C@H](COC(=O)[C@H]3[C@H](C(=O)OC[C@H]4O[C@@H](O[C@H]5[C@H](Oc6c(-c7ccc(O)c(O)c7)oc7cc(O)cc(O)c7c6=O)O[C@@H](C)[C@H](O)[C@H]5O)[C@H](O)[C@@H](O)[C@@H]4O)[C@@H](c4ccc(O)cc4)[C@@H]3c3ccc(O)cc3)[C@@H](O)[C@H](O)[C@H]2O)[C@H](O)[C@H]1O`: the half-maximal inhibitory concentration (IC50) in data set [1] was above 100 µM. Further, the viability at 1 µM with SH-SY5Y [3] was 96.7%. As to `C[C@@H]1O[C@@H](Oc2c(-c3ccc(O)cc3)oc3cc(O)cc(O)c3c2=O)[C@H](O[C@@H]2O[C@H](COC(=O)[C@@H]3[C@H](C(=O)OC[C@H]4O[C@@H](O[C@H]5[C@H](Oc6c(-c7ccc(O)cc7)oc7cc(O)cc(O)c7c6=O)O[C@@H](C)[C@H](O)[C@H]5O)[C@H](O)[C@@H](O)[C@@H]4O)[C@@H](c4ccc(O)cc4)[C@H]3c3ccc(O)cc3)[C@@H](O)[C@H](O)[C@H]2O)[C@H](O)[C@H]1O`, the half-maximal inhibitory concentration (IC50) in data set [1] was above 100 µM. For the molecule `C[C@@H]1O[C@@H](Oc2c(-c3ccc(O)cc3)oc3cc(O)cc(O)c3c2=O)[C@H](O[C@@H]2O[C@H](COC(=O)[C@H]3[C@H](C(=O)OC[C@H]4O[C@@H](O[C@H]5[C@H](Oc6c(-c7ccc(O)cc7)oc7cc(O)cc(O)c7c6=O)O[C@@H](C)[C@H](O)[C@H]5O)[C@H](O)[C@@H](O)[C@@H]4O)[C@@H](c4ccc(O)cc4)[C@@H]3c3ccc(O)cc3)[C@@H](O)[C@H](O)[C@H]2O)[C@H](O)[C@H]1O`, in data set [1], the concentration for half-maximal inhibition (IC50) was above 100 µM. With `C[C@@H]1O[C@@H](Oc2c(-c3ccc(O)c(O)c3)oc3cc(O)cc(O)c3c2=O)[C@H](O[C@@H]2O[C@H](COC(=O)[C@H]3[C@H](c4ccc(O)cc4)[C@@H](C(=O)OC[C@H]4O[C@@H](O[C@H]5[C@H](Oc6c(-c7ccc(O)c(O)c7)oc7cc(O)cc(O)c7c6=O)O[C@@H](C)[C@H](O)[C@H]5O)[C@H](O)[C@@H](O)[C@@H]4O)[C@@H]3c3ccc(O)cc3)[C@@H](O)[C@H](O)[C@H]2O)[C@H](O)[C@H]1O`, in data set [1], the IC50 was above 100 µM. For the molecule `C[C@@H]1O[C@@H](Oc2c(-c3ccc(O)cc3)oc3cc(O)cc(O)c3c2=O)[C@H](O[C@@H]2O[C@H](COC(=O)[C@@H]3[C@H](C(=O)OC[C@H]4O[C@@H](O[C@H]5[C@H](Oc6c(-c7ccc(O)cc7)oc7cc(O)cc(O)c7c6=O)O[C@@H](C)[C@H](O)[C@H]5O)[C@H](O)[C@@H](O)[C@@H]4O)[C@@H](c4ccc(O)cc4)[C@@H]3c3ccc(O)cc3)[C@@H](O)[C@H](O)[C@H]2O)[C@H](O)[C@H]1O`, in data set [1], the 50% inhibitory concentration (IC50) was above 100 µM. Regarding `C[C@@H]1O[C@@H](Oc2c(-c3ccc(O)cc3)oc3cc(O)cc(O)c3c2=O)[C@H](O[C@@H]2O[C@H](COC(=O)[C@@H]3[C@@H](C(=O)OC[C@H]4O[C@@H](O[C@H]5[C@H](Oc6c(-c7ccc(O)cc7)oc7cc(O)cc(O)c7c6=O)O[C@@H](C)[C@H](O)[C@H]5O)[C@H](O)[C@@H](O)[C@@H]4O)[C@@H](c4ccc(O)cc4)[C@@H]3c3ccc(O)cc3)[C@@H](O)[C@H](O)[C@H]2O)[C@H](O)[C@H]1O`, the half-maximal inhibitory concentration (IC50) in data set [1] is above 100 µM. `O=C(O[C@@H]1Cc2c(O)cc(O)cc2O[C@@H]1c1cc(O)c(O)c(O)c1)c1cc(O)c(O)c(O)c1` [EPIGALOCATECHIN GALLATE]: in the data set on SH-SY5Y [4], the viability at 10 µM worked out at 99%. `CNC(=N)NCCC[C@H](N)C(=O)O` [TILARGININE]: the viability at 24 h, 20 µM in data set [2] turned out to be 98.5%.
